Data: patent US20200246317A1, “METHODS OF TREATING DIABETIC NEUROPATHY WITH A THIAZOLINE ANTI-HYPERALGESIC AGENT” (CERSCI THERAPEUTICS, INC., priority 2019, published 2020)
Where a name gives a salt, the structure may show the parent alone.

How the values were obtained:
uninjured animals = assay: Normal sensation in uninjured animals; type: in vivo; settings: given to uninjured animals
[1] = Models of protein nitration; type: biochemical; settings: physiological conditions (neutral pH)
P-gp (MDR1/ABCB1) = molecular target: T1, P-gp (MDR1/ABCB1) (Homo sapiens, UniProt P08183); assay: Inhibition of transporters, P-gp (Caco-2 cells, digoxin); type: in vitro ADME
T1 construct: Caco-2 cells; endogenous in cells; host or cells: Caco-2 cells
T1 sequence (P08183 whole entry): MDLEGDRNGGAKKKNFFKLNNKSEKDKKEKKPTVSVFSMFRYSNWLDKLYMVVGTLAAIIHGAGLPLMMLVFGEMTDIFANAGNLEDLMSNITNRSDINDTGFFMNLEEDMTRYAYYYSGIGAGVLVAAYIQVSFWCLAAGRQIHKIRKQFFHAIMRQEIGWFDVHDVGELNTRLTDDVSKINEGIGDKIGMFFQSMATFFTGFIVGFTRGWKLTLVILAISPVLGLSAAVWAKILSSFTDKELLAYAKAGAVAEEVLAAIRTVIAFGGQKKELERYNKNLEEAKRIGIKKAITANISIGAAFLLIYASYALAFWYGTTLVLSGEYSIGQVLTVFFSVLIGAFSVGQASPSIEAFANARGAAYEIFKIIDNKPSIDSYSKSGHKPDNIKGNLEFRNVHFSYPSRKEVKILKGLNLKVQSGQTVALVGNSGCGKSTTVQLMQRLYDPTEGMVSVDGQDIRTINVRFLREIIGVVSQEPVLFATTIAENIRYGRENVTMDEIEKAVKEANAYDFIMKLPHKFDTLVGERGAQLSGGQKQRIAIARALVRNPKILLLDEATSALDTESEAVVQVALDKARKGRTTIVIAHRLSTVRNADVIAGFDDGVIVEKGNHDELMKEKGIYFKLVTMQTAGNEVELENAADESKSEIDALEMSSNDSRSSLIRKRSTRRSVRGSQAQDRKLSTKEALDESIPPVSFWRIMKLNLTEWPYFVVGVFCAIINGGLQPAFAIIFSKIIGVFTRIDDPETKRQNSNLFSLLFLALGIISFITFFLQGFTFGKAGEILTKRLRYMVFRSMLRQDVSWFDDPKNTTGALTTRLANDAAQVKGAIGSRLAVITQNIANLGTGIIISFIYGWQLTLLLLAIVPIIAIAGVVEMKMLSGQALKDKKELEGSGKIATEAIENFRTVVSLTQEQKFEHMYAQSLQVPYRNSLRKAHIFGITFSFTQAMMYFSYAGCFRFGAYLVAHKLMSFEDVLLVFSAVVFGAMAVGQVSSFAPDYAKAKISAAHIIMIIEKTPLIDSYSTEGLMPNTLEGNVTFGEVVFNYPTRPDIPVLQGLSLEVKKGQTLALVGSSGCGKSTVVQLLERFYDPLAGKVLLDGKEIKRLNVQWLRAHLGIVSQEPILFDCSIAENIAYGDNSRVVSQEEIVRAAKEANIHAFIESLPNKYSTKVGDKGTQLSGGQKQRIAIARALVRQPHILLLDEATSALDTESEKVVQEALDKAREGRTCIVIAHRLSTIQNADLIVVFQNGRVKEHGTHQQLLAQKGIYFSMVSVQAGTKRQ

## CC1(C)SC(Nc2ccccc2O)=N[C@@H]1C(=O)O [Compound 1, (R)-2-(2-hydroxyphenylamino)-5,5-dimethyl-4,5-dihydrothiazole-4-carboxylic acid mono-hydrochloride]
Uninjured animals
  effect on normal sensation: does not alter normal sensation
[1]
  removal of peroxynitrite: catalytically remove peroxynitrite
P-gp (MDR1/ABCB1)
  inhibition of P-gp (in words): does not inhibit
